Data from patent US20110059986A1, “INTERMITTENT DOSING REGIMEN FOR OVERWEIGHT AND OBESE SUBJECTS” (priority 2004, published 2011).

Columns and labels:
Format in all cases: in vivo
[1] = test system: obese Beagle dogs; experiment: 4 w-4 w-4 w intermittent dosing regimen study; conditions: 4 w-4 w-4 w regimen, 0.63 mg/kg oral once daily
Protocol: Mitratapide was administered for a first period of four weeks at a dosage of 0.63 mg/kg body weight, withheld for four weeks and again administered for four weeks at a dosage of 0.63 mg/kg body weight. At day 29, the feeding was restricted from ad libitum access to food, to a maintenance diet having a caloric content equal to the caloric expenditure of the test subject.
The effect of a 4 w-4 w-4 w intermittent dosing regimen on 15 obese Beagle dogs, with a body weight of 16% or more above optimal body weight, was studied. The dogs were treated with mitratapide oral solution at a daily single dose of 0.63 mg/kg body weight for two periods of 28 consecutive days (4 weeks) with an intermediate period of 28 consecutive days without treatment.
The test formulation comprising mitratapide was an aqueous 10% hydroxypropyl-β-cyclodextrin solution containing 2.5 mg mitratapide per ml and was administered once daily in an amount of 1 ml per 4 kg body weight. The daily dose was mixed into a small portion of feed and presented to the dog. The rest of the feed was only provided after this portion was consumed. […] The test solution comprising mitratapide was no longer administered and the body weight of the animals was further monitored during the follow-up procedure ending on day 112. […] Body weight of each test animal was measured on days 0, 14, 28, 42, 56, 84 and 112. […]

[2] = test system: obese Beagle dogs; experiment: Comparison of 3 w-2 w-3 w and 4 w-4 w-4 w dosing regimen; conditions: 0.63 mg/kg oral gavage once daily
Protocol: Thirty two healthy obese Beagle dogs of both sexes were included in a study of two different intermittent treatment regimens: a 3 w-2 w-3 w regimen and a 4 w-4 w-4 w regimen. At the start of the study, the dogs weighed between 12.5 and 26 kg which was considered as being more than 20% higher than the ideal body weight. The study was conducted in four groups, two treated groups containing 10 obese Beagle dogs and one placebo group containing 12 obese Beagle dogs. This placebo group of 12 dogs was subdivided in two sets of 6 dogs. One placebo group followed the 3 w-2 w-3 w regimen and the other placebo group the 4 w-4 w-4 w regimen.
The test compound mitratapide was provided as a polyethylene glycol 400 (PEG 400) solution comprising 5 mg mitratapide per ml. The test solution was administered once daily in the morning by oral gavage. The volume of test formulations was 0.125 ml per kg body weight so that mitratapide was administered with a dosage of 0.63 mg/kg body weight. The body weight was measured weekly during the treatment periods to adjust the amount of test formulation. The placebo groups received water as the test formulation. Each test subject had free access (in volume and time) to commercial dog feed (Bento Kronen premium Regular dog pellets) during the first administration period. The first administration period was followed by a period during which administration of mitratapide was withheld. At the same time, the dogs were put on a maintenance diet having a caloric content equal to their caloric expenditure. […] At the start of the second administration period, the dogs were again administered a mitratapide solution with a dosage of 0.63 mg/kg body weight. The dogs were kept on the same maintenance diet as during the previous period. All dogs had free access to drinking water throughout the entire study. Body weight of each test animal was measured weekly on days 0, 7, 14, 21 and so on till day 84. The effect on body weight for each of the four dosage studies is plotted in FIG. 3. […] The reduction of body weight of the two placebo groups was less than 2% after 84 days.

[3] = test system: obese Beagle dogs; experiment: Efficacy study with continuous administration of mitratapide during 8 weeks; conditions: oral
Protocol: FIG. 1 is a graph displaying the results of an efficacy study wherein the apoB secretion/MTP inhibitor mitratapide was administered during 8 weeks to a group of obese Beagle dogs. The four curves illustrate the effect on body weight by plotting the ‘(%) body weight relative to the weight at the start’ when mitratapide was administered with a dosage of 0 mg per kg body weight (A curve), 0.16 mg per kg body weight (B curve), 0.31 mg per kg body weight (C curve) and 0.63 mg per kg body weight in function of the duration of the study.
The efficacy of the apoB secretion/MTP inhibitor mitratapide for the reduction of body weight was studied in a blind, randomised study with 4 parallel groups of 6 dogs each. Three groups were treated orally with three different doses of mitratapide and one group was treated orally with the vehicle and served as a placebo group. The vehicle solution contained the same ingredients as the test formulations with omission of the test substance mitratapide.
The treatment groups were:
placebo group A treated orally with vehicle
group B treated orally with 0.16 mg mitratapide per kg body weight
group C treated orally with 0.31 mg mitratapide per kg body weight
group D treated orally with 0.63 mg mitratapide per kg body weight
The test subjects were healthy, male Beagle dogs with a body weight of 13.6 to 22.6 kg at the start of the experiment and between 1 and 8 years old. All dogs were treated orally using a 5 ml syringe, once daily, in the morning for a period of 8 weeks (56 days) depending on their body weight. Body weight was measured once weekly on days 0, 7, 14, 21, . . . up to day 56. The volume of test formulation was 1 ml per 4 kg body weight. The test formulation was an aqueous 10% hydroxypropyl-β-cyclodextrin solution containing no mitratapide, 0.63 mg mitratapide per ml, 1.25 mg mitratapide per ml or 2.5 mg mitratapide per ml. Each test subject had free access (in volume and time) to commercial dog feed (Bento Kronen Professional Power) and water during the 8 week study. […]

With `CCC(C)n1ncn(-c2ccc(N3CCN(c4ccc(OCC5COC(CSc6nncn6C)(c6ccc(Cl)cc6)O5)cc4)CC3)cc2)c1=O` (stereo not drawn) [mitratapide, (−)-[2S-[2α, 4α(S*)]]-4-[4-[4-[4-[[2-(4-chlorophenyl)-2-[[(4-methyl-4H-1,2,4-triazol-3-yl)thio]methyl]-1,3-dioxolan-4-yl]methoxy]-phenyl]-1-piperazinyl]phenyl]-2,4-dihydro-2-(1-methylpropyl)-3H-1,2,4-triazol-3-one] the “mean reduction of body weight” value ([1]; maintenance diet from the second period, after 84 days) was 9%, the “course of body weight reduction (levelling off)” value (“course of body weight reduction” below) ([1]; two treatment periods) was “no body weight reduction levelling off effect was observed” and the “course of body weight reduction” value ([2]; 3 w-2 w-3 w and 4 w-4 w-4 w regimens) was “no body weight reduction levelling off effect was observed”. For the same molecule, the “mean effect on body weight reduction” value ([2]; 3 w-2 w-3 w regimen, day 56) was 11%, the “mean effect on body weight reduction” value ([2]; 4 w-4 w-4 w regimen, day 84) was 13% and the “effect on body weight at 0.63 mg/kg compared with lower dose” value ([3]; 0.63 mg/kg once daily for 8 weeks, free access to feed) was “more effective in reducing body weight”. For the same molecule, the “course of body weight reduction” value ([3]; 0.63 mg/kg once daily, continuous for 8 weeks (curve D)) was “started to level off after three weeks” and the “daily dosage necessary to decrease body weight” value ([3]; once daily for 8 weeks (56 days), free access to feed, doses 0.16, 0.31, 0.63 mg/kg tested) was “at least 0.31 mg/kg”.
